In patent US20260132129A1 (Genesis Therapeutics, Inc., priority 2022, published 2026):
pIC50: −log10 of the molar value.

Target: T1, PI3Kα H1047R (T47D cells) (Homo sapiens, UniProt P42336, H1047R)
T1 construct: endogenous in cells; host or cells: T47D cells
Assay: PI3Kα cellular assay: pAKT HTRF in T47D cells after EGF stimulation
Format: cell-based
Conditions: for pIC50: T47D cells (PI3Kα H1047R), pAKT S473 HTRF, 1 hr compound, 20 ng/ml EGF 10 min
Summary of the method: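 T47D cells (PIK3CA H1047R) serum-starved 16 h, then treated 1 h at 37 °C with compound (10,000 nM top, 3-fold steps to 0.5 nM). After 10 min stimulation with 20 ng/mL EGF, cells were lysed and pAKT measured by HTRF.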

T1 sequence (P42336 whole entry H1047R): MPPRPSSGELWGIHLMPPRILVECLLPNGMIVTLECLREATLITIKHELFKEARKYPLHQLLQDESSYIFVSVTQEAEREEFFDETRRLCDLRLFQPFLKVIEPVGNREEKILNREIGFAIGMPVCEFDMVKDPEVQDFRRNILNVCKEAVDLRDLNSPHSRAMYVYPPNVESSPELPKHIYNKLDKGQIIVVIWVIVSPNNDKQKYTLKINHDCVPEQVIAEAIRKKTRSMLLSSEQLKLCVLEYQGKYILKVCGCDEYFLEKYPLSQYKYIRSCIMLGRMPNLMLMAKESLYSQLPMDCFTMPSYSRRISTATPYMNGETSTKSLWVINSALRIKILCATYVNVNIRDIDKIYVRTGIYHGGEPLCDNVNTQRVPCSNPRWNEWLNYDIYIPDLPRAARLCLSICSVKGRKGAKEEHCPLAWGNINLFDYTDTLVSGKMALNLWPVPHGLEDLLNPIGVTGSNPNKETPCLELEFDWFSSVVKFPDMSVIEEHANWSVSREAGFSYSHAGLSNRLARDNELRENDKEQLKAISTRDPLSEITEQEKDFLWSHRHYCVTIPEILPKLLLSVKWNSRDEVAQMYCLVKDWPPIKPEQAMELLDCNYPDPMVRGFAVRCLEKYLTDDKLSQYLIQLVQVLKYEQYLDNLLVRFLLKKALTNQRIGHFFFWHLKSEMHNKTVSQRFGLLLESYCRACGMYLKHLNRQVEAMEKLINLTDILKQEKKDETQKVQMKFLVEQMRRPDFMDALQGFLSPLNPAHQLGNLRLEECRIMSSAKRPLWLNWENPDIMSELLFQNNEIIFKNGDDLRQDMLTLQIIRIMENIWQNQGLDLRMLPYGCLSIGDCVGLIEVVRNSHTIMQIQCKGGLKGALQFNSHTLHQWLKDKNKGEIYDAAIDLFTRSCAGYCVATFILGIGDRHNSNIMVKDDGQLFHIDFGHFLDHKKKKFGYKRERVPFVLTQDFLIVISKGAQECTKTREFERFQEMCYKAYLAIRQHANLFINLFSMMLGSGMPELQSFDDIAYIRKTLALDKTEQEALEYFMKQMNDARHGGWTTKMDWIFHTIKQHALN
T1 sequence (P27986 whole entry partner): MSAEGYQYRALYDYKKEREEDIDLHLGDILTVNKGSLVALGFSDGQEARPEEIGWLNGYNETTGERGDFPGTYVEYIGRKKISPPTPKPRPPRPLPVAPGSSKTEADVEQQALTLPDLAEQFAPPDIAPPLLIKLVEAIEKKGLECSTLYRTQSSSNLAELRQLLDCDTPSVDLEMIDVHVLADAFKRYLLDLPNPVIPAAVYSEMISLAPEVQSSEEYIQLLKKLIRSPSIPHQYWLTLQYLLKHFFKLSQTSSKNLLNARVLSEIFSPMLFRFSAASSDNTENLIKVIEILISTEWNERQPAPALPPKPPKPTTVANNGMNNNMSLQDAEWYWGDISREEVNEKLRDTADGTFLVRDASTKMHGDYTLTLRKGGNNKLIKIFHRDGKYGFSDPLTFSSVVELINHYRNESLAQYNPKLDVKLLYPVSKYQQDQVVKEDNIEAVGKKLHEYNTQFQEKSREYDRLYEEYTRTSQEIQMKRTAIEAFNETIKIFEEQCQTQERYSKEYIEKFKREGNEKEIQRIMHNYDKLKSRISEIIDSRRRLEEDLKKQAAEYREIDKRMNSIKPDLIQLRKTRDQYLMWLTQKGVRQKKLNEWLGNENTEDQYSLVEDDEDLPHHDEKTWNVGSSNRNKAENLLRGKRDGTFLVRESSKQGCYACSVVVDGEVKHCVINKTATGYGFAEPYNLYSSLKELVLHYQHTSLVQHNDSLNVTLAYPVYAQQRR

Row | pIC50 | T47D pAKT S473 HTRF IC50 (H1047R): T47D (H1047R) selectivity over SKBR3 (WT) | SMILES
1 | 5.70 to 6.30 | B (B denotes 20-fold≥value>5-fold) | Cc1cc(C(C)Nc2ccccc2C(=O)O)c2nc(N3CCOC[C@H]3C)cc(=O)n2c1 (some centres unmarked) [Compound 295]
2 | < 5.70 | C (C denotes ≤5-fold) | Cc1cc([C@@H](C)Nc2ccccc2C(=O)O)c2nc(N3CCOC[C@H]3C)cc(=O)n2c1 [Compound 296]
3 | 6.30 to 7.00 | A (A denotes >20-fold) | Cc1cc([C@H](C)Nc2ccccc2C(=O)O)c2nc(N3CCOC[C@H]3C)cc(=O)n2c1 [Compound 297]
4 | < 5.70 | C (C denotes ≤5-fold) | CONC(=O)c1ccc(-c2cc(=O)n3cc(C)cc(C(C)NC4=CC=CCC4C(=O)O)c3n2)c(OC)c1 (centres unmarked) [Compound 299]
5 | < 5.70 | C (C denotes ≤5-fold) | Cc1cc(C(C)NC2=CC=CCC2C(=O)O)c2nc(Cc3cccc(C4=CCCC=C4)c3)c(C)c(=O)n2c1 (centres unmarked) [Compound 300]
6 | 5.70 to 6.30 | B (B denotes 20-fold≥value>5-fold) | Cc1cc(C(C)Nc2ccccc2C(=O)O)c2nc(-c3ccc(S(N)(=O)=O)cc3)cc(=O)n2c1 (centres unmarked) [Compound 302]
7 | < 5.70 | C (C denotes ≤5-fold) | Cc1cc(C(C)Nc2ccccc2C(=O)O)c2nc(-c3cccc(-c4nn[nH]n4)c3)cc(=O)n2c1 (centres unmarked) [Compound 303]
8 | < 5.70 | C (C denotes ≤5-fold) | Cc1cc(C(C)Nc2ccccc2C(=O)O)c2nc(-c3ccc4[nH]nc(-c5ccccn5)c4c3)cc(=O)n2c1 (centres unmarked) [Compound 304]
9 | 5.70 to 6.30 | B (B denotes 20-fold≥value>5-fold) | Cc1cc([C@@H](C)Nc2ccccc2C(=O)O)c2nc(-c3ccc(CC4CCN(C)CC4)cc3)c(C)c(=O)n2c1 [Compound 307]
10 | < 5.70 | C (C denotes ≤5-fold) | Cc1cc(C(C)Nc2ccccc2C(=O)O)c2nc(-c3ccc(CN4CCN(C)CC4)cc3)cc(=O)n2c1 (centres unmarked) [Compound 308]
11 | < 5.70 | C (C denotes ≤5-fold) | Cc1cc([C@@H](C)N(C)c2ccccc2C(=O)O)c2nc(N3CCOCC3)cc(=O)n2c1 [Compound 309]
12 | < 5.70 | C (C denotes ≤5-fold) | Cc1cc([C@H](C)N(C)c2ccccc2C(=O)O)c2nc(N3CCOCC3)cc(=O)n2c1 [Compound 310]
13 | < 5.70 | C (C denotes ≤5-fold) | COCCNc1cc(=O)n2cc(C)cc(C(C)Nc3ccccc3C(=O)O)c2n1 (centres unmarked) [Compound 313]
14 | 5.70 to 6.30 | B (B denotes 20-fold≥value>5-fold) | Cc1cc(C(C)Nc2ccccc2C(=O)O)c2nc(N3C[C@@H](C)O[C@@H](C)C3)cc(=O)n2c1 (some centres unmarked) [Compound 315]
15 | < 5.70 | C (C denotes ≤5-fold) | Cc1cc([C@@H](C)Nc2ccccc2C(=O)O)c2nc(C3CCOCC3)cc(=O)n2c1 [Compound 316]
16 | 6.30 to 7.00 | A (A denotes >20-fold) | Cc1cc([C@H](C)Nc2ccccc2C(=O)O)c2nc(C3CCOCC3)cc(=O)n2c1 [Compound 317]
17 | < 5.70 | C (C denotes ≤5-fold) | Cc1cc(C(C)Nc2ccccc2C(=O)O)c2nc(-c3ccc4[nH]nc(-c5ccccn5)c4c3)cc(=O)n2c1 (centres unmarked) [Compound 318]
18 | 6.30 to 7.00 | A (A denotes >20-fold) | Cc1cc([C@@H](C)Nc2ccccc2C(=O)O)c2nc(N3C[C@@H](C)O[C@@H](C)C3)cc(=O)n2c1 [Compound 319]
19 | < 5.70 | C (C denotes ≤5-fold) | Cc1cc([C@H](C)Nc2ccccc2C(=O)O)c2nc(N3C[C@@H](C)O[C@@H](C)C3)cc(=O)n2c1 [Compound 320]
